How the values were obtained:
E. coli [1] = test: Contact-killing assay (adapted from ISO 22196) on allyl-TPU blade-coated samples modified with Qx-SH; assay type: cell-based, Escherichia coli (ATCC 25922); conditions: for Mean CFU/Sample Recovered, E. coli: n = 2
Protocol: (§1) To functionalize the allyl-TPU blade-coated samples with Qx-SH reagents, thiol-ene reactions were performed using the same procedure described for rhodamine-SH. Briefly, blade-coated films of allyl-TPU (250 μm thick, 2.0 cm diameter, ca. 110 mg, 20 μmol allyl) were submerged in 2 mL of an Ar purged (30 min) aqueous solution containing Qx-SH (10.0 mM) and LAP (5.0 mM), and allowed to pre-soak for 30 min under Ar. UV-treated samples were irradiated for 30 min (λ=365 nm, I=1.2 mW·cm^−2) while phys. ads. samples were kept in the absence of UV light for 30 min to control for any antimicrobial activity that is contributed by non-covalently attached QAC. Following treatment, the dye/photoinitiator solutions were drawn up and discarded, and the samples were rinsed with 5 mL of DI water (3×) then submerged in 5 mL of DI water. The samples were further rinsed with 10% EtOH (3×) and soaked in 10% EtOH for 15 min (3×), rinsing with 10% EtOH in between each soak.
(§2) For antimicrobial testing, blade-coated samples and catheter tubing of allyl-TPU were sterilized by EtO sterilization using an Anprolene benchtop sterilizer (Anderson Products, Inc., Haw River, N.C.) following the manufacturer's protocol to deliver approximately 0.5 cc·L^−1 of EtO gas over a 12 h sterilization cycle at 35% humidity and room temperature, followed by a 48 h purge under vacuum. The bacterial strains used in this study included Staphylococcus epidermidis (ATCC 12228), Staphylococcus aureus (25923), Escherichia coli (ATCC 25922), Pseudomonas aeruginosa (ATCC 27853), Enterococcus faecalis (ATCC 29212), and methicillin-resistant Staphylococcus aureus (MRSA) (ATCC BAA-41).
The contact-killing assay was performed on physically adsorbed (phys. ads.), and UV-treated blade-coated samples modified with a series of Qx-SH reagents using a method adapted from ISO 22196. See, International Organization for Standardization. Measurement of antibacterial activity on plastics and other non porous surfaces (ISO 22196:2011), the disclosure of which is incorporated herein by reference in its entirety. Briefly, the samples were inoculated with same day cultures of select bacteria (e.g. E. coli, S. epidermidis) in dilute nutrient media (0.2% tryptic soy broth (TSB) in 1× phosphate buffered saline (PBS)) at approximately 150 colony-forming units (CFU)·mm^−2. Generally, 35 uL of 8.5×10^5 CFU/mL cultures were dispersed across the surface of the sample using sterile polypropylene cover films (area=198 mm^2). […] Following incubation, surviving cells were recovered from the samples using vigorous agitation (i.e. vortexing for 20 s in PBS). Surviving cells were enumerated via 10-fold series dilution and plating 100 μL onto tryptic soy agar (TSA), incubating overnight and then plate counting CFU. The mean CFU recovered per sample (CFU/sample) were calculated by accounting for dilutions. Internal controls samples of polypropylene and chlorhexidine treated with polypropylene were included in the assay.

S. epidermidis = test: as above; assay type: cell-based, Staphylococcus epidermidis (ATCC 12228); conditions: n = 2
Protocol: as §1, §2
(§3) The contact-killing assay was performed on physically adsorbed (phys. ads.), and UV-treated blade-coated samples modified with a series of Qx-SH reagents using a method adapted from ISO 22196. See, International Organization for Standardization. Measurement of antibacterial activity on plastics and other non porous surfaces (ISO 22196:2011), the disclosure of which is incorporated herein by reference in its entirety. Briefly, the samples were inoculated with same day cultures of select bacteria (e.g. E. coli, S. epidermidis) in dilute nutrient media (0.2% tryptic soy broth (TSB) in 1× phosphate buffered saline (PBS)) at approximately 150 colony-forming units (CFU)·mm^−2. Generally, 35 uL of 8.5×10^5 CFU/mL cultures were dispersed across the surface of the sample using sterile polypropylene cover films (area=198 mm^2). Inoculated samples were incubated in a humidified room air incubator (36° C., ca. 80% rel. humidity) for 20 h. Following incubation, surviving cells were recovered from the samples using vigorous agitation (i.e. vortexing for 20 s in PBS). Surviving cells were enumerated via 10-fold series dilution and plating 100 μL onto tryptic soy agar (TSA), incubating overnight and then plate counting CFU. The mean CFU recovered per sample (CFU/sample) were calculated by accounting for dilutions. Internal controls samples of polypropylene and chlorhexidine treated with polypropylene were included in the assay.

MRSA = test: as above; assay type: cell-based; conditions: n = 1
Protocol: as §1, §2, §3

E. faecalis = test: as above; assay type: cell-based, Enterococcus faecalis (ATCC 29212); conditions: n = 1
Protocol: as §1, §2, §3

P. aeruginosa = test: as above; assay type: cell-based, Pseudomonas aeruginosa (ATCC 27853); conditions: for Mean CFU/Sample Recovered, P. aeruginosa: n = 1
Protocol: as §1, §2, §3

E. coli [2] = test: Antimicrobial testing using ISO22196 protocol on compression molded samples; assay type: cell-based; conditions: surface functionalized (covalently attached QAC) sample; FIG. 7B
[3] = UV-treated samples, negative control polypropylene 2.04 (±0.06) × 10^6
[4] = phys. ads. samples, negative control polypropylene 2.04 (±0.06) × 10^6
[5] = UV-treated samples, negative control polypropylene 0.93 (±0.03) × 10^5
[6] = phys. ads. samples, negative control polypropylene 0.93 (±0.03) × 10^5
[7] = UV-treated samples, negative control polypropylene 1.51 × 10^5
[8] = phys. ads. samples, negative control polypropylene 1.51 × 10^5
[9] = UV-treated samples, negative control polypropylene 1.70 × 10^5
[10] = phys. ads. samples, negative control polypropylene 1.70 × 10^5
[11] = UV-treated samples, negative control polypropylene 7.94 × 10^6
[12] = phys. ads. samples, negative control polypropylene 7.94 × 10^6
[13] = UV-treated samples, 24 h contact-killing assay
[14] = positive control (chlorhexidine treated polypropylene)

SMILES	Mean CFU/Sample Recovered, E. coli (E. coli [1]; [3])	Mean CFU/Sample Recovered, E. coli (E. coli [1]; [4])	Mean CFU/Sample Recovered, S.epidermidis (S. epidermidis; [5])	Mean CFU/Sample Recovered, S.epidermidis (S. epidermidis; [6])	Mean CFU/Sample Recovered, MRSA (MRSA; [7])	Mean CFU/Sample Recovered, MRSA (MRSA; [8])	Mean CFU/Sample Recovered, E. faecalis (E. faecalis; [9])	Mean CFU/Sample Recovered, E. faecalis (E. faecalis; [10])	Mean CFU/Sample Recovered, P. aeruginosa (P. aeruginosa; [11])	Mean CFU/Sample Recovered, P. aeruginosa (P. aeruginosa; [12])	log reduction in E. coli compared to the negative control (E. coli [1]; [13])	reduction in E. coli compared to the negative control (E. coli [1]; [13])	reduction of P. aeruginosa (P. aeruginosa; UV-treated samples)	log reduction, activity against E. coli (E. coli [2])	Mean CFU/Sample Recovered, E. coli (E. coli [1]; [14])	Mean CFU/Sample Recovered, S.epidermidis (S. epidermidis; [14])	Mean CFU/Sample Recovered, MRSA (MRSA; [14])	Mean CFU/Sample Recovered, E. faecalis (E. faecalis; [14])	Mean CFU/Sample Recovered, P. aeruginosa (P. aeruginosa; [14])
CCCCCCCCCCCCCC[N+](C)(C)CCCCCCCCOC(=O)CCS.[Cl-] [Q14-SH]	6.61 (±0.01) × 10^5 CFU/Sample	6.03 (±0.03) × 10^5 CFU/Sample	0.00 ± 0.00 CFU/Sample	0.00 ± 0.00 CFU/Sample	1.00 × 10^2 CFU/Sample	0.00 CFU/Sample	0.00 CFU/Sample	0.00 CFU/Sample	5.25 × 10^6 CFU/Sample	4.79 × 10^6 CFU/Sample	–	–	–	–	–	–	–	–	–
CCCCCCCCCCCC[N+](C)(C)CCCCCCCCOC(=O)CCS.[Cl-] [Q12-SH]	0.00 ± 0.00 CFU/Sample	1.17 (±0.41) × 10^3 CFU/Sample	0.00 ± 0.00 CFU/Sample	0.00 ± 0.00 CFU/Sample	0.00 CFU/Sample	0.00 CFU/Sample	0.00 CFU/Sample	0.00 CFU/Sample	0.00 CFU/Sample	7.24 × 10^5 CFU/Sample	6 log	99.9999%	complete reduction	–	–	–	–	–	–
CCCCCCCCCCCCCC[N+](C)(C)CCCCCCCCOC(=O)CCSSCCC(=O)OCCCCCCCC[N+](C)(C)CCCCCCCCCCCCCC.[Cl-].[Cl-] [8-Q14-S-S]	–	–	–	–	–	–	–	–	–	–	–	–	–	6 log	–	–	–	–	–
[H]/N=C(\N/C(=N/[H])NCCCCCCNC(=N)NC(=N)Nc1ccc(Cl)cc1)Nc1ccc(Cl)cc1 [Chlorhexidine, reference compound]	–	–	–	–	–	–	–	–	–	–	–	–	–	–	0.00 ± 0.00 CFU/Sample	0.00 ± 0.00 CFU/Sample	0.00 CFU/Sample	0.00 CFU/Sample	0.00 CFU/Sample

Source: patent publication US11155668B2, “Contact-killing, QAC functionalized thermoplastic polyurethane for catheter applications” (THE UNIVERSITY OF AKRON, priority 2017, dated 2021)
